{"source": "patent US20040180931A1", "about": "“Methods for treating Parkinson's disease” (priority 2000, published 2004)", "type_in_all_cases": "in vivo, humans", "key": {"[1]": {"tested_on": "patients with Parkinson's disease who were suffering from dementia", "assay": "Mini-Mental State Examination (MMSE) in randomized, placebo-controlled, double-blind crossover study", "conditions": "5 mg or 10 mg donepezil, 10 weeks, start of treatment to week 10", "procedure": "(§1) A randomized, placebo-controlled, double-blind crossover study was conducted with fourteen patients with Parkinson's disease (13 men, 1 woman; mean age 78 (SD 3.6) years; mean duration of illness 11.4 (SD 4.9) years) who had developed cognitive impairments (mean Mini-Mental State Examination (MMSE) score 20.7 (SD 3.3)) 8.6 (SD 5.8) years after the onset of parkinsonism. […] At weeks 6 and 10 the patients completed a battery of cognitive tests. Cognitive impairments were measured using the MMSE and the CIBIC, a 7-point scale of the clinician's interview-based impression of change based upon information scored independently of the MMSE. Parkinsonism was assessed using the Unified Parkinson's Disease Rating Scale (UPDRS)."}, "[2]": {"tested_on": "patients with Parkinson's disease and mild or moderate dementia", "assay": "Overall efficacy / cognitive function in crossover study", "procedure": "as §1"}, "[3]": {"tested_on": "patients with Parkinson's disease who were suffering from dementia", "assay": "CIBIC+ (clinician's interview-based impression of change) in randomized, placebo-controlled, double-blind crossover study", "procedure": "as §1"}}, "data": [{"compound": "COc1cc2c(cc1OC)C(=O)C(CC1CCN(Cc3ccccc3)CC1)C2", "note": "(stereo not drawn) [donepezil, 1-benzyl-4-((5,6-dimethoxy-1-indanon)-2-yl)methylpiperidine]", "values": [{"measurement": "mean MMSE score difference from baseline to week 10", "setting": "[1]", "result": 2.1, "unit": "points"}, {"measurement": "all efficacy measures versus placebo", "setting": "[2]; in vivo", "result": "numerical benefit"}, {"measurement": "cognitive function", "setting": "[2]; treated for 10 weeks", "result": "improvement"}, {"measurement": "mean CIBIC+ score at week 10", "setting": "[3]; 5 mg or 10 mg donepezil, week 10, 7-point scale", "result": 3.3}, {"measurement": "CIBIC+ response rate (improvement, CIBIC+ score of 3 or lower)", "setting": "[3]; 10 weeks of treatment", "result": 42, "unit": "%"}, {"measurement": "number of patients with improvement (CIBIC+ score of 3 or lower)", "setting": "[3]; 10 weeks of treatment", "result": 5, "unit": "patients"}]}]}
